In one assay the test system is T-47D. The assay is described as follows: MTT cytotoxicity test, T-47D. In kind it is cell-based. The note with it: Homo sapiens, T47D, T-47D breast cancer, 72 hours, read-out: concentrations flanking the IC50. The procedure:
(§1) The influence of the compounds of formulae I and II on neoplastic cells was evaluated using the MTT calorimetric test. The principle of the MTT test is based on the mitochondrial reduction by metabolically active live cells of the yellow-colored product MTT (3-(4,5-dimethylthiazol-2-yl)-2,5-diphenyltetrazolium bromide) to a blue-colored product, formazan. The amount of formazan thus obtained is directly proportional to the amount of live cells present in the culture well(s). This amount of formazan is measured by spectrophotometry.
(§2) The cell lines are maintained in monolayer culture at 37° C. in stoppered culture dishes containing 25 MM HEPES MEM (Minimum Essential Medium) base medium. This medium, which is suitable for growing a range of varied diploid or primary mammalian cells, is then supplemented: […]
(§3) with a an amount of 5% FCS (Fetal Calf Serum) decomplemented at 56° C. for 1 hour, with 0.6 mg/mL of L-glutamine, with 200 IU/mL of penicillin, with […] of streptomycin, with 0.1 mg/mL of gentamicin.
The 12 human cancer cell lines used were obtained from the American Type Culture Collection (ATCC, Rockville, Md., USA). These 12 cell lines are: […]

The subject of another assay is U-87MG. The assay is described as follows: MTT cytotoxicity test, U-87MG. The class given is cell-based. Conditions: Homo sapiens, U-87MG glioblastoma, 72 hours, read-out: concentrations flanking the IC50. The procedure: as §1, §2, §3
The 12 human cancer cell lines used were obtained from the American Type Culture Collection (ATCC, Rockville, Md., USA). These 12 cell lines are:
U-373MG (code ATCC: HTB-17) and U-87MG (code ATCC: HTB-14) which are two glioblastomas, Experimentally: 100 μl of a cell suspension containing 200 000 to 50 000 (depending on the cell type used) cells/mL of culture medium are inoculated in flat-bottomed 96-well multi-well plates and are incubated at 37° C. under an atmosphere comprising 5% CO2 and 70% humidity. […] The intensity of the resulting blue coloration, and thus of the conversion of the yellow MTT product into blue formazan by the cells that are still alive at the end of the experiment is quantified by spectrophotometry using a DYNATECH IMMUNOASSAY SYSTEM machine at wavelengths of 570 nm and 630 nm corresponding, respectively, to the maximum absorption wavelengths of formazan and to the background noise. […]

With `O=C1c2ncccc2-c2nc3ccccc3c3ccnc1c23` [CRL 8299, Benzo[b]pyrido[4,3,2-de][1,7]phenanthroline-8-one], the results for the IC50 with T-47D and in the assay with U-87MG were 10 nM and below 0.1 nM, respectively.

These data come from patent publication US6583150B1, “Pharmaceutical composition based on polyaromatic compounds” (Laboratorie L. Lafon, priority 1999, dated 2003).
